Data as given in patent US20230265151A1, “GIP/GLP1 CO-AGONIST COMPOUNDS” (priority 2020, published 2023).
Like-named read-outs stand apart in the source and are kept apart here.

Key:
hGCGR = molecular target: T1, hGCGR (Homo sapiens, UniProt P47871); test: Functional cAMP formation (HTRF) in HEK-293 clonal cells expressing hGCGR, 0.1% bovine casein, without or with 1.0% human serum albumin; assay type: cell-based; conditions: cAMP, 37° C., read-out: hGCGR EC50, nM (SEM, n)
T1 construct: expressed in transfected cells
Method in brief: (§1)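 Readings of the HTRF 665/620 nm ratio, which falls as cAMP rises, were converted to nM cAMP using a standard curve after 30 min peptide exposure at 37° C.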

hGIPR = molecular target: T2, hGIPR (Homo sapiens, UniProt P48546); test: Functional cAMP formation (HTRF) in HEK-293 clonal cells expressing hGIPR, 0.1% bovine casein, without or with 1.0% human serum albumin; assay type: cell-based; conditions: 37° C.; for Emax: HEK293, cAMP, 0.1% bovine casein and 1.0% human serum albumin, percent of maximal response to GIP(1-42)NH2, read-out: hGIPR Emax, % ± SEM; for EC50: cAMP, 0.1% bovine casein (no human serum albumin), geometric mean, read-out: hGIPR EC50, nM (SEM, n)
T2 construct: expressed in transfected cells
T2 sequence (P48546 22-466): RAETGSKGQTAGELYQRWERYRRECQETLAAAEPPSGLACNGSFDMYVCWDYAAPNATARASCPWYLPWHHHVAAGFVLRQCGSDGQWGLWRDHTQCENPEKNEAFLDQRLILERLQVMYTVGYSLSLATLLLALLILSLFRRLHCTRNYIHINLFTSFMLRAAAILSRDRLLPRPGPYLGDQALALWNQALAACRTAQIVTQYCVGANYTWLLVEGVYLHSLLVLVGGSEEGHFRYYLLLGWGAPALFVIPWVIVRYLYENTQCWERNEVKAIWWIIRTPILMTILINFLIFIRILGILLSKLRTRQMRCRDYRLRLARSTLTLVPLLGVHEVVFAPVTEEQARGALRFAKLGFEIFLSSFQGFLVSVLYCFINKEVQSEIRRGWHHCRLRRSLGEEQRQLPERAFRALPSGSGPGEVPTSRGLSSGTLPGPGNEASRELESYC
Method in brief: as §1

hGLP-1R = hGLP-1R (Homo sapiens, UniProt P43220); test: Functional cAMP formation (HTRF) in HEK-293 clonal cells expressing hGLP-1R, 0.1% bovine casein, without or with 1.0% human serum albumin; assay type: cell-based; set-up: expressed in transfected cells; conditions: 37° C.; for Emax: HEK293, cAMP, percent of maximal response to GLP-1(7-36)NH2, read-out: hGLP-1R Emax, % ± SEM; for EC50: cAMP, read-out: hGLP-1R EC50, nM (SEM, n)
Method in brief: as §1

[1] = molecular target: T3, human GLP-1 receptor (hGLP-1R) (Homo sapiens, UniProt P43220); test: [125I]-GLP-1 binding, SPA with membranes of HEK293 cells expressing hGLP-1R; conditions: human GLP-1R; geometric mean (SEM, n); read-out: Binding Affinity Ki, nM (SEM, n) hGLP-1R
T3 construct: expressed in transfected cells; crude membranes

[2] = molecular target: T4, human GIP receptor (hGIPR) (Homo sapiens, UniProt P48546); test: [125I]-GIP binding, SPA with membranes of CHO cells expressing hGIPR; conditions: human GIPR; geometric mean (SEM, n); read-out: Binding Affinity Ki, nM (SEM, n) hGIPR
T4 construct: expressed in transfected cells; crude membranes
T4 sequence (P48546 22-466): T2 sequence (P48546 22-466)

[3] = 0.1% bovine casein (no human serum albumin), geometric mean
[4] = 0.1% bovine casein and 1.0% human serum albumin, geometric mean (SEM, n)

T1 sequence (P47871 26-477): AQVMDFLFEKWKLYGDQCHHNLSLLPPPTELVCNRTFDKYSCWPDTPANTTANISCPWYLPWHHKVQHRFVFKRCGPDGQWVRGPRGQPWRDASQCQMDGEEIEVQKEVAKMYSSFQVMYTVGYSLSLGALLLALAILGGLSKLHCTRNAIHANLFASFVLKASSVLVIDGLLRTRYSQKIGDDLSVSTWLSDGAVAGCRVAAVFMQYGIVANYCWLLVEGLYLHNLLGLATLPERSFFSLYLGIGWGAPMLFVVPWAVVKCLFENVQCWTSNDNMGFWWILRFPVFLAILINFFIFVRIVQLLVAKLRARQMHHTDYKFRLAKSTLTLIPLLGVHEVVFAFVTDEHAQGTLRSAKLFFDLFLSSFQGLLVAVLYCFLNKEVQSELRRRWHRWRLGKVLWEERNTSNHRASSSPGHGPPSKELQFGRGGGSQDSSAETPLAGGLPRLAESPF
Sequence of hGLP-1R (P43220 24-463): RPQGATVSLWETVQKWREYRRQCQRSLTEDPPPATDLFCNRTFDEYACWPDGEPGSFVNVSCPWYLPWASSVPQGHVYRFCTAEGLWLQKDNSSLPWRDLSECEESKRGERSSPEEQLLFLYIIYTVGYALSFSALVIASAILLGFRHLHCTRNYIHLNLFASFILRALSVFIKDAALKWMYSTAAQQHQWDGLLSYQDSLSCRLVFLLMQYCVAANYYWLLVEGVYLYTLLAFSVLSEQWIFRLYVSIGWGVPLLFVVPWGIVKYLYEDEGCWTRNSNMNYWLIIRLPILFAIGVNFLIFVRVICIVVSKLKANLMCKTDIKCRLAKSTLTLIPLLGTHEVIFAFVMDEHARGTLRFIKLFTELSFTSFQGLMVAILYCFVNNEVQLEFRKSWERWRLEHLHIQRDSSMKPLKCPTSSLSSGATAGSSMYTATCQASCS
T3 sequence (P43220 24-463): as above

Row | SMILES | EC50 (hGCGR; [3]) [nM] | EC50 (hGCGR; [4]) [nM] | Emax (hGIPR) [%] | EC50 (hGIPR) [nM] | Emax (hGLP-1R; 0.1% bovine casein, arithmetic mean) [%] | EC50 (hGLP-1R; [3]) [nM] | Ki [1] [nM] | Ki [2] [nM] | Emax (hGLP-1R; 0.1% bovine casein and 1.0% human serum albumin) [%] | EC50 (hGLP-1R; [4]) [nM]
1 | CCCCCCCCCCCC(=O)N[C@@H](CCC(=O)NCCOCCOCC(=O)NCCOCCOCC(=O)NCCOCCOCC(=O)NCCCC[C@H](NC(=O)[C@H](CCCN)NC(=O)[C@H](CC(=O)O)NC(=O)[C@H](CC(C)C)NC(=O)[C@](C)(CC(C)C)NC(=O)[C@@H](NC(=O)C(C)(C)NC(=O)[C@H](Cc1ccncc1)NC(=O)[C@H](CC(=O)O)NC(=O)[C@H](CO)NC(=O)[C@@H](NC(=O)[C@](C)(Cc1ccccc1F)NC(=O)[C@@H](NC(=O)CNC(=O)[C@H](CCC(=O)O)NC(=O)C(C)(C)NC(=O)[C@@H](N)Cc1ccc(O)cc1)[C@@H](C)O)[C@@H](C)O)[C@@H](C)CC)C(=O)N[C@@H](C)C(=O)N[C@@H](CCC(N)=O)C(=O)NC(C)(C)C(=O)N[C@@H](CCC(=O)O)C(=O)N[C@@H](Cc1ccccc1)C(=O)N[C@H](C(=O)N[C@H](CCC(=O)O)C(=O)N[C@@](C)(Cc1ccc(O)cc1)C(=O)N[C@@H](CC(C)C)C(=O)N[C@H](C(=O)N[C@@H](CCCCNC(=O)COCCOCCNC(=O)COCCOCCNC(=O)COCCOCCNC(=O)CC[C@H](NC(=O)CCCCCCCCCCC)C(=O)O)C(=O)NCC(=O)NCC(=O)N1CCC[C@H]1C(=O)N[C@@H](CO)C(=O)N[C@@H](CO)C(=O)NCC(=O)N[C@@H](C)C(=O)N1CCC[C@H]1C(=O)N1CCC[C@H]1C(=O)N1CCC[C@H]1C(=O)N[C@@H](CO)C(N)=O)[C@@H](C)CC)[C@@H](C)CC)C(=O)O [Example 423] | > 9950 | > 9950 | 89.7 | 0.00658 | 105 | 0.0721 | 0.275 | 0.0207 |  | 
2 | CCCCCCCCCCCC(=O)N[C@@H](CCC(=O)NCCOCCOCC(=O)NCCOCCOCC(=O)NCCOCCOCC(=O)NCCCC[C@H](NC(=O)[C@H](CO)NC(=O)[C@@H]1CCCN1C(=O)[C@@H]1CCCN1C(=O)[C@@H]1CCCN1C(=O)[C@H](C)NC(=O)CNC(=O)[C@H](CO)NC(=O)[C@H](CO)NC(=O)[C@@H]1CCCN1C(=O)CNC(=O)CNC(=O)[C@H](CCC(=O)O)NC(=O)[C@@H](NC(=O)[C@H](CC(C)C)NC(=O)[C@](C)(Cc1ccc(O)cc1)NC(=O)[C@@H](CCC(=O)O)NC(=O)[C@@H](NC(=O)[C@H](Cc1ccccc1)NC(=O)[C@H](CCC(=O)O)NC(=O)C(C)(C)NC(=O)[C@H](CCC(N)=O)NC(=O)[C@H](C)NC(=O)[C@H](CCCCNC(=O)COCCOCCNC(=O)COCCOCCNC(=O)COCCOCCNC(=O)CC[C@H](NC(=O)CCCCCCCCCCC)C(=O)O)NC(=O)[C@H](CCCN)NC(=O)[C@H](CC(=O)O)NC(=O)[C@H](CC(C)C)NC(=O)[C@](C)(CC(C)C)NC(=O)[C@@H](NC(=O)C(C)(C)NC(=O)[C@H](Cc1ccncc1)NC(=O)[C@H](CC(=O)O)NC(=O)[C@H](CO)NC(=O)[C@@H](NC(=O)[C@](C)(Cc1ccccc1F)NC(=O)[C@@H](NC(=O)CNC(=O)[C@H](CCC(=O)O)NC(=O)C(C)(C)NC(=O)[C@@H](N)Cc1ccc(O)cc1)[C@@H](C)O)[C@@H](C)O)[C@@H](C)CC)[C@@H](C)CC)[C@@H](C)CC)C(N)=O)C(=O)O [Example 424] | > 9950 | > 9950 | 89.5 | 0.00502 |  | 0.0427 | 0.219 | 0.0206 | 98.1 | 3.07
